Data reported in PMC10504751, “Chalcone/1,3,4-Oxadiazole/Benzimidazole hybrids as novel anti-proliferative agents inducing apoptosis and inhibiting EGFR & BRAFV^600E” (BMC Chemistry, 2023).
Like-named read-outs stand apart in the source and are kept apart here.

Columns and labels:
Assay in all cases: NCI one-dose SRB anti-proliferative screen
Type in all cases: cell-based
786-0 = settings: Homo sapiens, read-out: Cell growth inhibition %
Protocol: (§1) The twenty-four synthesized compounds were submitted to the National Cancer Institute (NCI), USA. Eighteen hybrids 7a-h, 7k-r, 7u, and 7v were selected by NCI for one-dose assessment of their anti-proliferative activities at 10 µM dose by Sulforhodamine B colorimetric assay. The assessment was performed in 60 cell lines derived from nine tumor subpanels, comprising lung, leukemia, melanoma, colon, renal, CNS, prostate, breast, and ovarian cancer cell lines.
(§2) The methodology of the NCI anti-proliferative screening has been described in details elsewhere (http://www.dtp.nci.nih.gov).

A549/ATCC = settings: Homo sapiens, read-out: Cell growth inhibition %
Protocol: as §1, §2

MDA-MB-468 = settings: Homo sapiens, read-out: Cell growth inhibition %
Protocol: as §1, §2

MCF7 = settings: Homo sapiens, read-out: Cell growth inhibition %
Protocol: as §1, §2

PC-3 = settings: Homo sapiens, read-out: Cell growth inhibition %
Protocol: as §1, §2

CCRF-CEM = settings: Homo sapiens, read-out: Cell growth inhibition %
Protocol: as §1, §2

CAKI-1 = settings: Homo sapiens, read-out: Cell growth inhibition %
Protocol: as §1, §2

KM12 = settings: Homo sapiens, read-out: Cell growth inhibition %
Protocol: as §1, §2

NCI-H226 = settings: Homo sapiens, read-out: Cell growth inhibition %
Protocol: as §1, §2

UACC-62 = settings: Homo sapiens, read-out: Cell growth inhibition %
Protocol: as §1, §2

SK-MEL-28 = settings: Homo sapiens, read-out: Cell growth inhibition %
Protocol: as §1, §2

SK-OV-3 = settings: Homo sapiens, read-out: Cell growth inhibition %
Protocol: as §1, §2

LOX IMVI = settings: Homo sapiens; for inhibition at 10 µM: read-out: Cell growth inhibition %; for activity at 10 µM: LOX IMVI (Melanoma), 10 µM one dose, read-out: Growth Percent
Protocol: as §1, §2

ACHN = settings: Homo sapiens, read-out: Cell growth inhibition %
Protocol: as §1, §2

OVCAR-3 = settings: Homo sapiens, read-out: Cell growth inhibition %
Protocol: as §1, §2

NCI-H23 = settings: Homo sapiens, read-out: Cell growth inhibition %
Protocol: as §1, §2

DU-145 = settings: Homo sapiens, read-out: Cell growth inhibition %
Protocol: as §1, §2

SNB-75 = settings: Homo sapiens, read-out: Cell growth inhibition %
Protocol: as §1, §2

HCC-2998 = settings: Homo sapiens, read-out: Cell growth inhibition %
Protocol: as §1, §2

IGROV1 = settings: Homo sapiens, IGROV-1, read-out: Cell growth inhibition %
Protocol: as §1, §2

SF-268 = settings: Homo sapiens, read-out: Cell growth inhibition %
Protocol: as §1, §2

NCI-H522 = settings: Homo sapiens, read-out: Cell growth inhibition %
Protocol: as §1, §2

SN12C = settings: Homo sapiens, read-out: Cell growth inhibition %
Protocol: as §1, §2

RPMI-8226 = settings: Homo sapiens, read-out: Cell growth inhibition %
Protocol: as §1, §2

SF-295 = settings: Homo sapiens, read-out: Cell growth inhibition %
Protocol: as §1, §2

SK-MEL-5 = settings: Homo sapiens, read-out: Cell growth inhibition %
Protocol: as §1, §2

COLO 205 = settings: Homo sapiens, read-out: Cell growth inhibition %
Protocol: as §1, §2

EKVX = settings: Homo sapiens, read-out: Cell growth inhibition %
Protocol: as §1, §2

HS 578T = settings: Homo sapiens, read-out: Cell growth inhibition %
Protocol: as §1, §2

MALME-3M = settings: Homo sapiens, read-out: Cell growth inhibition %
Protocol: as §1, §2

UACC-257 = settings: Homo sapiens, read-out: Cell growth inhibition %
Protocol: as §1, §2

## COc1ccc(/C=C/C(=O)c2ccc(NC(=O)CSc3nnc(-c4ccc5[nH]c(-c6ccc(Cl)cc6)nc5c4)o3)cc2)cc1 [Compound 7h, 2-{5-[2-(4-Chlorophenyl)-1 H-benzo[d]imidazol-5-yl]-1,3,4-oxadiazol-2-ylthio}-N-{4-[(E)-3-(4-methoxyphenyl)acryloyl]phenyl}acetamide]
786-0; 786-0 (Renal Cancer), NCI one dose 10 µM
  inhibition at 10 µM: 0.41%
A549/ATCC; A549/ATCC (Non-Small Cell Lung Cancer), NCI one dose 10 µM
  inhibition at 10 µM: 0%
MDA-MB-468; MDA-MB-468 (Breast Cancer), NCI one dose 10 µM
  inhibition at 10 µM: 0%
MCF7; MCF7 (Breast Cancer), NCI one dose 10 µM
  inhibition at 10 µM: 20.3%
PC-3; PC-3 (Prostate Cancer), NCI one dose 10 µM
  inhibition at 10 µM: 17.5%
CCRF-CEM; CCRF-CEM (Leukemia), NCI one dose 10 µM
  inhibition at 10 µM: 40.1%
CAKI-1; CAKI-1 (Renal Cancer), NCI one dose 10 µM
  inhibition at 10 µM: 2.63%
KM12; KM12 (Colon Cancer), NCI one dose 10 µM
  inhibition at 10 µM: 0.3%
NCI-H226; NCI-H226 (Non-Small Cell Lung Cancer), NCI one dose 10 µM
  inhibition at 10 µM: 12.4%
UACC-62; UACC-62 (Melanoma), NCI one dose 10 µM
  inhibition at 10 µM: 16.2%
SK-MEL-28; SK-MEL-28 (Melanoma), NCI one dose 10 µM
  inhibition at 10 µM: 0%
SK-OV-3; SK-OV-3 (Ovarian Cancer), NCI one dose 10 µM
  inhibition at 10 µM: 0%
LOX IMVI; LOX IMIV (Melanoma), NCI one dose 10 µM
  inhibition at 10 µM: 93.2%
LOX IMVI
  activity at 10 µM: -32 to 18%
ACHN; ACHN (Renal Cancer), NCI one dose 10 µM
  inhibition at 10 µM: 0%
OVCAR-3; OVCAR-3 (Ovarian Cancer), NCI one dose 10 µM
  inhibition at 10 µM: 0%
NCI-H23; NCI-H23 (Non-Small Cell Lung Cancer), NCI one dose 10 µM
  inhibition at 10 µM: 6%
DU-145; DU-145 (Prostate Cancer), NCI one dose 10 µM
  inhibition at 10 µM: 0%
SNB-75; SNB-75 (CNS Cancer), NCI one dose 10 µM
  inhibition at 10 µM: 1.47%
HCC-2998; HCC-2998 (Colon Cancer), NCI one dose 10 µM
  inhibition at 10 µM: 0%
IGROV1; IGROV1 (Ovarian Cancer), NCI one dose 10 µM
  inhibition at 10 µM: 4.69%
SF-268; SF-268 (CNS Cancer), NCI one dose 10 µM
  inhibition at 10 µM: 0%
NCI-H522; NCI-H522 (Non-Small Cell Lung Cancer), NCI one dose 10 µM
  inhibition at 10 µM: 20.9%
SN12C; SN 12C (Renal Cancer), NCI one dose 10 µM
  inhibition at 10 µM: 6.65%
RPMI-8226; RPMI-8226 (Leukemia), NCI one dose 10 µM
  inhibition at 10 µM: 35.6%
SF-295; SF-295 (CNS Cancer), NCI one dose 10 µM
  inhibition at 10 µM: 0%
SK-MEL-5; SK-MEL-5 (Melanoma), NCI one dose 10 µM
  inhibition at 10 µM: 10.3%
COLO 205; COLO 205 (Colon Cancer), NCI one dose 10 µM
  inhibition at 10 µM: 0%
EKVX; EKVX (Non-Small Cell Lung Cancer), NCI one dose 10 µM
  inhibition at 10 µM: 0%
HS 578T; HS 578T (Breast Cancer), NCI one dose 10 µM
  inhibition at 10 µM: 5.34%
MALME-3M; MALME-3M (Melanoma), NCI one dose 10 µM
  inhibition at 10 µM: 6.52%
UACC-257; UACC-257 (Melanoma), NCI one dose 10 µM
  inhibition at 10 µM: 0%

## COc1ccc(-c2nc3cc(-c4nnc(SCC(=O)Nc5ccc(C(=O)/C=C/c6ccccc6)cc5)o4)ccc3[nH]2)cc1 [Compound 7k, 2-{5-[2-(4-Methoxyphenyl)-1 H-benzo[d]imidazol-5-yl]-1,3,4-oxadiazol-2-ylthio}-N-{4-[(E)-3-phenylacryloyl]phenyl}acetamide]
786-0; 786-0, Renal cancer, NCI one dose
  inhibition at 10 µM: 41.2%
A549/ATCC; A549/ATCC, Non-Small Cell Lung Cancer, NCI one dose
  inhibition at 10 µM: 5.82%
MDA-MB-468; MDA-MB-468, Breast cancer, NCI one dose
  inhibition at 10 µM: 19.5%
MCF7; MCF7, Breast cancer, NCI one dose
  inhibition at 10 µM: 50.3%
PC-3; PC-3, Prostate Cancer, NCI one dose
  inhibition at 10 µM: 22.4%
CCRF-CEM; CCRF-CEM, Leukemia, NCI one dose
  inhibition at 10 µM: 48.2%
CAKI-1; CAKI-1, Renal cancer, NCI one dose
  inhibition at 10 µM: 14.1%
KM12; KM12, Colon cancer, NCI one dose
  inhibition at 10 µM: 15.6%
NCI-H226; NCI-H226, Non-Small Cell Lung Cancer, NCI one dose
  inhibition at 10 µM: 35.4%
UACC-62; UACC-62, Melanoma, NCI one dose
  inhibition at 10 µM: 20.1%
SK-MEL-28; SK-MEL-28, Melanoma, NCI one dose
  inhibition at 10 µM: 11.4%
SK-OV-3; SK-OV-3, Ovarian Cancer, NCI one dose
  inhibition at 10 µM: 0%
LOX IMVI
  activity at 10 µM: 14.9%
LOX IMVI; Melanoma, NCI one dose
  inhibition at 10 µM: 85.1%
ACHN; ACHN, Renal cancer, NCI one dose
  inhibition at 10 µM: 7.59%
OVCAR-3; OVCAR-3, Ovarian Cancer, NCI one dose
  inhibition at 10 µM: 0%
NCI-H23; NCI-H23, Non-Small Cell Lung Cancer, NCI one dose
  inhibition at 10 µM: 16.9%
DU-145; DU-145, Prostate Cancer, NCI one dose
  inhibition at 10 µM: 9.04%
SNB-75; SNB-75, CNS Cancer, NCI one dose
  inhibition at 10 µM: 33.7%
HCC-2998; HCC-2998, Colon cancer, NCI one dose
  inhibition at 10 µM: 0%
IGROV1; IGROV1, Ovarian Cancer, NCI one dose
  inhibition at 10 µM: 2.63%
SF-268; SF-268, CNS Cancer, NCI one dose
  inhibition at 10 µM: 17.1%
NCI-H522; NCI-H522, Non-Small Cell Lung Cancer, NCI one dose
  inhibition at 10 µM: 17.3%
SN12C; SN 12C, Renal cancer, NCI one dose
  inhibition at 10 µM: 15.2%
RPMI-8226; RPMI-8226, Leukemia, NCI one dose
  inhibition at 10 µM: 86.7%
SF-295; SF-295, CNS Cancer, NCI one dose
  inhibition at 10 µM: 17.8%
SK-MEL-5; SK-MEL-5, Melanoma, NCI one dose
  inhibition at 10 µM: 49.2%
COLO 205; COLO 205, Colon cancer, NCI one dose
  inhibition at 10 µM: 0%
EKVX; EKVX, Non-Small Cell Lung Cancer, NCI one dose
  inhibition at 10 µM: 13.9%
HS 578T; HS 578T, Breast cancer, NCI one dose
  inhibition at 10 µM: 7.69%
MALME-3M; MALME-3M, Melanoma, NCI one dose
  inhibition at 10 µM: 26.6%
UACC-257; UACC-257, Melanoma, NCI one dose
  inhibition at 10 µM: 0.49%
